Data published in US9126941B2, “Treatment of hyperproliferative disorders with diarylhydantoin compounds” (The Regents of the University of California, priority 2005, dated 2015).
Like-named read-outs stand apart in the source and are kept apart here.

What was measured:
[1] = system: 1AR cell line; assay: Luciferase activity in the 1AR cell line; format: cell-based; conditions: for a given dose
[2] = biological target: T1, AR (Homo sapiens, UniProt P10275); assay: cell-based; format: cell-based
Method: It is well established that PSA levels are indicators of AR activities in prostate cancer. […] The LNCaP-AR cells are a line of lymph node carcinoma of prostate cells transduced with a plasmid that makes express androgen receptors. […] After four days incubation, secreted PSA levels were assayed using PSA ELISA kits (American Qualex, San Clemente, Calif.)

[3] = system: 4AR cell line; assay: Luciferase activity in the 4AR cell line; format: cell-based; conditions: for a given dose, 1.25 to 10 μmol
[4] = system: DU-145 cells; assay: MTS growth assay, DU-145 cells; format: cell-based; conditions: prostate cancer cell line lacking AR expression
[5] = biological target: T1, AR; assay: cell-based; format: cell-based; remark: listed apart in the source
[6] = system: AR-overexpressed LNCaP xenograft tumors; assay: AR-overexpressed LNCaP xenograft model in castrated male SCID mice, oral once daily; format: in vivo; conditions: 44 days
Method: FIG. 7. […] Mice with established LN-AR xenograft tumors were randomized and treated with indicated compounds orally once daily. Tumor size was measured by caliber.
FIG. 8. […] The tumors were taken out from the mice after 44 days of treatment, tumor lysate was extracted, and PSA level in tissue lysate was determined by ELISA.
First we examined this compound on xenograft tumors established from AR-overexpressed LNCaP cells. The engineered cells in Matrigel (Collaborative Biomedical) were injected subcutaneously into the flanks of the castrated male SCID mice. Tumor size was measured weekly in three dimensions using calipers. After xenograft tumors established (tumor size reached at least 40 mm^3), mice with tumors were randomized and treated with different doses of compounds orally once daily.

[7] = Pharmacokinetics in FVB mice, drug concentration by HPLC; conditions: mice
Method: Mice were divided into groups of three for each time points. Two mice were not treated with drug and two other mice were treated with vehicle solution. […]
The drug was dissolved in a mixture 1:5:14 of DMSO:PEG400:H20. (Vehicle solution) and was administered into mice through the tail vein. The animals are warmed under a heat lamp for approximately 20 minutes prior to treatment to dilate their tail vein. […] After drug administration, the animals were euthanized via CO2 inhalation at different timepoints: […], […], 2 h, 6 h, 16 h. Animals were immediately bleed after exposure to CO2 via cardiac puncture (1 ml BD syringe+27 G ⅝ needle).
The samples for HPLC analysis were prepared according to the following procedure: • Blood cells were separated from serum by centrifugation. • To 400 μl of serum were added 80 μl of a 10 μM solution of an internal standard and 520 μl of acetonitrile. Precipitation occurred. • The mixture was vortexed for 3 minutes and then placed under ultrasound for 30 minutes. • The solid particles were filtered off or were separated by centrifugation. • The filtrate was dried under an argon flow to dryness.

[8] = biological target: T1, AR; assay: cell-based; format: cell-based; remark: listed apart in the source
Method: The compounds were subjected to tests using an artificial AR response reporter system in a hormone refractory prostate cancer cell line. […] After two days of incubation, reporter activities were assayed.

[9] = system: 3T3; assay: Growth effect on 3T3 fibroblasts; format: cell-based; conditions: normal mouse fibroblast cell line
[10] = system: SkBr3; assay: Growth effect on SkBr3 cells; format: cell-based; conditions: breast cancer cells
[11] = system: hormone refractory LAPC4 xenograft; assay: Hormone refractory LAPC4 xenograft model; format: in vivo, mice; conditions: 1 mg per kg orally once daily, 17 days
Method: FIG. 9. […] (A), tumor size was measured by caliber. (B), the tumors were taken out from the mice after 17 days of treatment, tumor lysate was extracted, and PSA level in tissue lysate was determined by ELISA.
This model was established from passaging of hormone sensitive prostate cancer in castrated mice, which mimics the clinical progression of prostate cancer (2).

[12] = biological target: T1, AR; assay: cell-based
From the text: Table 2 lists the agonistic activities of different compounds.

[13] = system: LNCaP cells; assay: MTS growth assay, hormone sensitive LNCaP cells; format: cell-based; conditions: FIG. 10, MTS
Method: FIG. 10. Inhibitory effect on growth of hormone sensitive prostate cancer cells. […] After 4 days of incubation, cell growth was measured by MTS assay.

[14] = biological target: glucocorticoid receptor (GR) (Homo sapiens (Human), UniProt P04150); assay: GR response reporter in LNCaP cells over expressing glucocorticoid receptor; format: cell-based; conditions: reporter induced by dexamethasone
[15] = system: MCF7; assay: Growth effect on MCF7 cells; format: cell-based; conditions: breast cancer cells

T1 sequence (P10275 whole entry, looked up): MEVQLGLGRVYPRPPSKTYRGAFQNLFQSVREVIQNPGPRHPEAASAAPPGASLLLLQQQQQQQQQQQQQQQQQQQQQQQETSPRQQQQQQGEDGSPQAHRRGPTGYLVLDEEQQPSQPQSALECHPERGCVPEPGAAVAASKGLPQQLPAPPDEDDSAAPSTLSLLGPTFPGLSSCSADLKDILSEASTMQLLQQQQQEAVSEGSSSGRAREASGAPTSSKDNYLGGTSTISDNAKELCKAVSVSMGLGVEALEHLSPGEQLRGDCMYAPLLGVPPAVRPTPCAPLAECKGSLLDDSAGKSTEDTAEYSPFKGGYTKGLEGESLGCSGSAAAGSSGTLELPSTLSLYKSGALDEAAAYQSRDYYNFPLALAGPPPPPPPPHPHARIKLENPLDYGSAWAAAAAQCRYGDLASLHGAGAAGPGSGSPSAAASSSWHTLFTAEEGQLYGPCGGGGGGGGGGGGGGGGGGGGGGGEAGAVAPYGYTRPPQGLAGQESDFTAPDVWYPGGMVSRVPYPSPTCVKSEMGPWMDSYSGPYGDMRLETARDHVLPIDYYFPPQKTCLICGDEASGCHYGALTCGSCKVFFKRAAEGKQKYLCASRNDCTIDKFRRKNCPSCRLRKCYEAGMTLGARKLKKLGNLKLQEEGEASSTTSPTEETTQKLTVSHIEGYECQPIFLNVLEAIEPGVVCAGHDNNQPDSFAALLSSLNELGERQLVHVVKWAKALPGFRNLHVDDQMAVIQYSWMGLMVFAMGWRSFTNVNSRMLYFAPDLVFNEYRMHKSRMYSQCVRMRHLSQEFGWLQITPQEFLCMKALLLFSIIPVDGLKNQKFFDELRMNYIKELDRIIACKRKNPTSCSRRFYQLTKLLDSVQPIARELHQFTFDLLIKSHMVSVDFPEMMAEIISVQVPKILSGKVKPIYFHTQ
Sequence of glucocorticoid receptor (GR) (P04150 whole entry, species assumed): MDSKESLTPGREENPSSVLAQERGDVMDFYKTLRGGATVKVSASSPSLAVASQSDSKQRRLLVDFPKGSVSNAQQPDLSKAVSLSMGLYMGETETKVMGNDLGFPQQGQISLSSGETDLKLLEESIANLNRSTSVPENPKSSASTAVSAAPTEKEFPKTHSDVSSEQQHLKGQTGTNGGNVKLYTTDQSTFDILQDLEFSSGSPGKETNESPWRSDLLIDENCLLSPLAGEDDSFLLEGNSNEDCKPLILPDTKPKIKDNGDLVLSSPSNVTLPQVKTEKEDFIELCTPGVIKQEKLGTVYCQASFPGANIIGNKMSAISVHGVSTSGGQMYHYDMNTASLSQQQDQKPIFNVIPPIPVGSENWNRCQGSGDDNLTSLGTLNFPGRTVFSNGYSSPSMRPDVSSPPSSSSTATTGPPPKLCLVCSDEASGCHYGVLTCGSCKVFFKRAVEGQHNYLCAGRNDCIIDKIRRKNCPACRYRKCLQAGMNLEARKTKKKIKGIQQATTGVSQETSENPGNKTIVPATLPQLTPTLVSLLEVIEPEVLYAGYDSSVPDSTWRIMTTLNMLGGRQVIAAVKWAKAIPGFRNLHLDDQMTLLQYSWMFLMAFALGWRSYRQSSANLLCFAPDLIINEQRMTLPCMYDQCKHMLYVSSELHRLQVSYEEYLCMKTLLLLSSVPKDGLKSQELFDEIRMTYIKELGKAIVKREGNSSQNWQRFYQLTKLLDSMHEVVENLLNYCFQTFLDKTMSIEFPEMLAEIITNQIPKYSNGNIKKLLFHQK

CC1(C)C(=O)N(c2ccc(C#N)c(C(F)(F)F)c2)C(=S)N1c1ccc(O)cc1 [RD8, 4-[3-(4-hydroxyphenyl)-4,4-dimethyl-5-oxo-2-thioxoimidazolidin-1-yl]-2-trifluoromethylbenzonitrile]
Luciferase activity, 1AR cell line [1]: less than the luciferase activity upon exposure to RD9
PSA level, LN/AR cell line, comparison ([2]; for a given dose / concentration): less than the PSA level upon exposure to RD9
Luciferase activity, 4AR cell line (FIG. 26) [3]: less than the luciferase activity upon exposure to RD9

Cc1ccc(N2C(=S)N(c3ccc(C#N)c(C(F)(F)F)c3)C(=O)C23CCC3)cc1 [RD37, 4-(8-oxo-6-thioxo-5-(4-methylphenyl)-5,7-diazaspiro[3.4]oct-7-yl)-2-trifluoromethylbenzonitrile]
Growth inhibitory effect on DU-145 cells [4]: no growth inhibitory effect
Agonistic activity, secreted PSA ([5]; AR over expressed LNCaP, absence of R1881): no agonistic activities
fold induction at 0.1 µM ([5]; LNCaP, read-out: Fold induction of endogenous PSA, 0.1 μM): 1.25
fold induction at 1 µM ([5]; LNCaP, read-out: Fold induction of endogenous PSA, 1 μM): 1.2
fold induction at 10 µM ([5]; LNCaP, read-out: Fold induction of endogenous PSA, 10 μM): 1.15
Growth of LNCaP-AR xenograft tumors (FIG. 7a) ([6]; 1 mg per kg orally once daily): strongly inhibited growth
Dose dependence of tumor growth inhibition (FIG. 7b) ([6]; 0.1, 1 or 10 mg per kg): dose-dependent
PSA expression in xenograft tumors (FIG. 8) ([6]; 0.1, 1 or 10 mg per kg, tumor lysate ELISA): inhibited PSA expression
IC50 [2]: 0.128 µM
Rank order, most active to least active, relative PSA level (FIG. 4) ([2]; 500 nM): RD138>RD131>RD37>RD133>RD134>RD137>RD138>RD135>bicalutamide
Decrease in PSA level of LNCaP-AR cells, comparison (FIG. 4) ([2]; at concentrations of 1000 nM): greater decrease in PSA level of LNCaP-AR cells than RD133, RD134, and RD138
Pharmacokinetic behavior, residence time in blood [7]: metabolize fast
IC50 [8]: 0.124 µM
IC50 compared with bicalutamide (FIG. 15) ([8]; assay not specified): much lower than the IC50 for bicalutamide
Growth effect on 3T3 [9]: no growth effect
Growth effect on SkBr3 [10]: no growth effect
Growth of hormone refractory LAPC4 xenograft (FIG. 9a) [11]: strongly inhibited
PSA expression in hormone refractory LAPC4 xenograft (FIG. 9b) [11]: strongly inhibited
Agonistic activity on AR, reporter ([12]; LN-AR, absence of R1881): no agonistic activity
fold induction at 0.1 µM ([12]; read-out: Fold induction of AR response reporter, 0.1 μM): 0.87
fold induction at 1 µM ([12]; read-out: Fold induction of AR response reporter, 1 μM): 1.19
fold induction at 10 µM ([12]; read-out: Fold induction of AR response reporter, 10 μM): 0.89
Potency relative to bicalutamide on hormone sensitive prostate cancer cells [13]: 10 fold
Effect on GR response reporter [14]: no effect on GR
Growth effect on MCF7 [15]: no growth effect
